Test: Inhibition of CSF1R in mouse MNFS-60 cells assessed as reduction in CSF-induced cell viability after 48 hrs by Ez-cytox reagent based assay

Compound	IC50
FC(F)(F)c1ccc(CNc2ccc(Cc3c[nH]c4ncc(Cl)cc34)cn2)cn1	14 nM
CCN1CCN(Cc2ccc(C(=O)Nc3ccc(C)c(NCc4cnc5cccnn45)c3)cc2C(F)(F)F)CC1	660 nM
CCN1CCN(Cc2ccc(C(=O)Nc3ccc(C)c(NCc4cnc5ccc(OC)nn45)c3)cc2C(F)(F)F)CC1	406 nM
CCN1CCN(Cc2ccc(NC(=O)c3ccc(C)c(NC(=O)c4cnc5cccnn45)c3)cc2C(F)(F)F)CC1	122 nM
CCN1CCN(Cc2ccc(C(=O)Nc3ccc(C)c(NC(=O)c4cnc5cccnn45)c3)cc2C(F)(F)F)CC1	178 nM
CCN1CCN(Cc2ccc(C(=O)Nc3ccc(C)c(NC(=O)c4cnnc5ccccc45)c3)cc2C(F)(F)F)CC1	1600 nM
CCN1CCN(Cc2ccc(C(=O)Nc3ccc(C)c(NC(=O)c4cnc5ccccn45)c3)cc2C(F)(F)F)CC1	149 nM
CCN1CCN(Cc2ccc(C(=O)Nc3ccc(C)c(NC(=O)c4cnn5ccccc45)c3)cc2C(F)(F)F)CC1	91 nM
CCN1CCN(Cc2ccc(C(=O)Nc3ccc(C)c(NC(=O)c4cnc5ncccn45)c3)cc2C(F)(F)F)CC1	4170 nM
CCN1CCN(Cc2ccc(C(=O)Nc3ccc(C)c(NC(=O)c4n[nH]c5ccccc45)c3)cc2C(F)(F)F)CC1	1580 nM
CCN1CCN(Cc2ccc(C(=O)Nc3ccc(C)c(NC(=O)c4n[nH]c5ncccc45)c3)cc2C(F)(F)F)CC1	254 nM
CCN1CCN(Cc2ccc(C(=O)Nc3ccc(C)c(NC(=O)c4cc[nH]n4)c3)cc2C(F)(F)F)CC1	4720 nM
CCN1CCN(Cc2ccc(C(=O)Nc3ccc(C)c(NC(=O)c4ccn(C)n4)c3)cc2C(F)(F)F)CC1	5150 nM
CCN1CCN(Cc2ccc(C(=O)Nc3ccc(C)c(NC(=O)c4c[nH]cn4)c3)cc2C(F)(F)F)CC1	5430 nM
CCN1CCN(Cc2ccc(C(=O)Nc3ccc(C)c(NC(=O)c4ncc[nH]4)c3)cc2C(F)(F)F)CC1	5780 nM
Cc1ccc(NC(=O)c2ccc(C(F)(F)F)nc2)cc1NC(=O)c1cnc2cccnn12	> 10000 nM
Cc1ccc(NC(=O)c2ccc(C(F)(F)F)nc2)cc1NC(=O)c1cnc2ccccn12	25 nM
Cc1ccc(NC(=O)c2ccc(C(F)(F)F)nc2)cc1NC(=O)c1cnn2ccccc12	27 nM
Cc1ccc(NCc2ccc(C(F)(F)F)nc2)cc1NC(=O)c1cnc2cccnn12	> 10000 nM
Cc1ccc(NCc2ccc(C(F)(F)F)nc2)cc1NC(=O)c1cnc2ccccn12	3150 nM
Cc1ccc(NCc2ccc(C(F)(F)F)nc2)cc1NC(=O)c1cnn2ccccc12	5770 nM
Cc1cn(-c2cc(NC(=O)c3ccc(C)c(NC(=O)c4cnc5cccnn45)c3)cc(C(F)(F)F)c2)cn1	1820 nM
Cc1cn(-c2cc(NC(=O)c3ccc(C)c(NC(=O)c4cnc5ccccn45)c3)cc(C(F)(F)F)c2)cn1	486 nM
CNC(=O)c1cc(Oc2ccc3nc(N[C@H]4CCCC[C@H]4O)sc3c2)ccn1	245 nM
Cc1cn(-c2cc(NC(=O)c3ccc(C)c(Nc4nccc(-c5cccnc5)n4)c3)cc(C(F)(F)F)c2)cn1 [AMN 107]	534 nM

Source: BindingDB's records for doi:10.1016/j.ejmech.2021.113298 (Chung-Ang University, 2021)
